According to patent US11213522B2, “Autoimmune-induced glutamatergic receptor dysfunction methods and treatments” (SARAH HERZOG MEMORIAL HOSPITAL EZRAT NASHIM ASSOCIATION, priority 2013, dated 2022):

What was measured:
Format in all cases: in vivo, human
[1] = system: patient positive for anti-NR1 NMDAR antibodies; assay: Neurocognitive assessment battery (overall)
Protocol: (§1) The trial consisted of two periods, starting with a 2 week lead-in/stabilization period (−2-0) following which the patient was entered in the second period of the study which consisted of a 6 week (0-6), open-label, fixed dose therapy phase. During this phase, the patient received adjuvant treatment with DSR, whose dose was increased from 1500 mg/day (week 1) to 2000 mg/day (weeks 2 and 3) to 3000 mg/day (weeks 4 and 5) and to 4000 mg/day (week 6). The doses of the ongoing medication received by the patient remained fixed throughout the study and no changes in medication were performed.
In addition, cognitive performance was assessed pre- and post DSR treatment. For this purpose, a 1.5-hour neurocognitive assessment battery (nine computerized and two paper/pencil tests) was employed that measures accuracy and speed of performance in major cognition domains, including attention/vigilance, planning, short-term and working memory, decision making, abstraction and mental flexibility. All the tests were formatted like games and puzzles, and were administered to the patient as part of the comprehensive neuropsychiatric assessment at baseline and the end of study. […]

[2] = system: patient positive for anti-NR1 NMDAR antibodies; assay: Tower of London (ToL); conditions: post-6 weeks D-serine
Protocol: as §1
In addition, cognitive performance was assessed pre- and post DSR treatment. For this purpose, a 1.5-hour neurocognitive assessment battery (nine computerized and two paper/pencil tests) was employed that measures accuracy and speed of performance in major cognition domains, including attention/vigilance, planning, short-term and working memory, decision making, abstraction and mental flexibility. All the tests were formatted like games and puzzles, and were administered to the patient as part of the comprehensive neuropsychiatric assessment at baseline and the end of study. The neurocognitive battery included the 1) Test of Attentional Vigilance (TOAV, (Forbes, 1998, Journal of Clinical Psychology 54:461-476; Greenberg, 1993, Journal of Child Psychology and Psychiatry 34: 1019-30)); 2) Tower of London (TOL, (Shailice, 1982, Specific impairments of planning Philosophical Transactions of the Royal Society of London. Series B, Biological Sciences 298:199-209); 3-4) Digit Span Test (DST, forward and backward (Wechsler 1997, The Wechsler adult intelligence scale-III. San Antonio, Tex.: Psychological Corporation; Kaplan 1991, The WAIS-R as a neuropsychological instrument. San Antonio, Tex.: The Psychological Corporation; Lamar et al., 2007, Neuropsychologia 45:245-54; Lamar et al., 2008, Neuropsychologia 46:2597-601)); 5-6) Corsi Block Tapping Test (CBTT, forward and backward, (Corsi, 1972, Dissertation Abstracts International. 34:819B; Kessels et al., 2000, Applied Neuropsychology 7:252-58, Kessels et al., 2008, Assessment 15:426-34)); 7) Flanker Task (Erikson and Eriksen, 1974; Perception & Psychophysics 25: 249-63, Stins et. al., 2007, Advances in Cognitive Psychology 3:389-96); 8) Time Wall (Perez et al., 1987, Unified Tri-services cognitive performance assessment battery: review and methodology; DTIC Document ADA181697, http://www.dtic.mil/dtic/tr/fulltext/u2/a81697.pdf); and Wisconsin Card Sort Test (WCST, (Berg, 1948, J Gen Psychol39:15-22; Nelson, 1976, Cortex 12:313-24)). […]

[3] = system: patient positive for anti-NR1 NMDAR antibodies; assay: Simpson Angus Scale for Extrapyramidal Symptoms (SAS), D-serine clinical trial; conditions: week 0 score 5
Description: Out of the seventeen patients that entered the study, the serum of one patient was strongly positive at both serum sample dilutions for the presence of both IgG and IgM classes of anti-NR1 NMDAR antibodies. The patient was a single person having a diagnosis of schizophrenia according to DSM-IV-R criteria (American Psychiatric Association, 2000 Diagnostic and Statistical Manual of Mental Disorders-(DSM-IV-TR), 4th edition. American Psychiatric Association Washington D.C. (Text Revision)). There was no history of mental disorder in the patient's family. The patient had completed post-high school studies and had worked as a secretary. After a period of continuous headaches, for which no organic basis had been found, they had abruptly developed an acute psychosis characterized by grandiose and paranoid delusions, mystical thinking, […] affect and agitation, They had been hospitalized in a psychiatric hospital and underwent treatment with antipsychotic drugs and electroconvulsive therapy with only partial response. The patient had never returned to their previous functional and except for short attempts at living in the community, has been hospitalized ever since. They have been refractory to treatment with various classes of antipsychotic drugs, was not diagnosed with any medical or neurological disorder and was maintained on sulpiride 50 mg/day, citalopram 40 mg/day, lorazepam 1 mg/day and promethazine 50 mg/day. […] DSR is a naturally occurring amino acid that acts in vivo as an obligatory co-agonist at the glycine modulatory site associated with NMDAR. […] Both acute and chronic administration of 1-2 g DSR in humans is known to result in ≥100 times increases in DSR serum levels (Kantrowitz et al., 2010, Schizophr Res121:125-30; Heresco-Levy et al., 2005, Biol Psychiatry 57:577-85). […] In conjunction with UKU ratings, patient's vital signs and body weight were monitored throughout the study.

N[C@H](CO)C(=O)O [D-serine]
Completion of DST, TMT and WCST tasks ([1]; post-DSR treatment, not comprehended/performed at baseline): successfully completed | Effect upon cognitive performance (test battery) ([1]; post-DSR vs baseline, improvements in working memory, abstraction and mental flexibility): favorable effect | ToL correctly solved trials, total (0-12) ([2]; pre-treatment 6): 4 | ToL preplanning time, mean ± SD ([2]; pre-treatment 15.48 ± 4.43): 11.24 ± 4.73 s | ToL movement execution time, mean ± SD ([2]; pre-treatment 22.57 ± 11.998): 19.30 ± 15.42 s | ToL total time (0-720 seconds) ([2]; pre-treatment 456.582): 366.415 s | SAS ([3]; study week 2): 4 | SAS ([3]; study week 4): 4 | SAS ([3]; study week 6): 3
